In patent publication US5624932A (priority 1995, dated 1997):
Entries after “also recorded” stand apart in the source; their conditions may differ.

Legend:
[1] = tested on: dorsal root ganglion (DRG) neurons; type: cell-based, mouse
opiate addicts = conditions: in vivo
morphine-dependent rats = tested on: morphine-dependent rats; design: species or system Wistar rats; conditions: rat, in vivo
[2] = tested on: morphine-dependent monkeys; design: species or system rhesus monkeys (Macaca mulatta); conditions: rhesus monkey, in vivo
[3] = tested on: morphine-dependent monkeys; conditions: rhesus monkey, in vivo
[4] = in vivo; cited from earlier work
[5] = tested on: dorsal root ganglion (DRG) neurons; conditions: nM-μM; cited from earlier work
[6] = tested on: chronic opioid-treated DRG neurons; type: cell-based, mouse

**Q.** For `CN1CC[C@]23CCCC[C@H]2[C@H]1Cc1ccc(O)cc13` [Levorphenol], which “Alteration of action potential duration, opioid at high concentration” value [1] is on record?
**A.** Shortening

**Q.** What about the “Alteration of action potential duration, opioid at low concentration” value [1] of the same molecule?
**A.** Prolongation

**Q.** For `CCC(=O)C(CC(C)N(C)C)(c1ccccc1)c1ccccc1` (stereo not shown) [Methadone, methadone], which “addiction resulting from substitution treatment” value (opiate addicts) is on record?
**A.** invariably results in transfer to methadone addiction

**Q.** What about the “rebound of withdrawal symptoms” value (opiate addicts) of the same molecule?
**A.** often results in the rebound of withdrawal symptoms

**Q.** What about the “side effects during substitution treatment” value (opiate addicts) of the same molecule?
**A.** negligible

**Q.** And the “time before symptomatic relief” value (opiate addicts)?
**A.** one to several

**Q.** And the “Alteration of action potential duration, opioid at high concentration” value [1]?
**A.** inhibitory APD-shortening

**Q.** What about the “Alteration of action potential duration, opioid at low concentration” value [1] of the same molecule?
**A.** excitatory APD-prolonging; also recorded: Prolongation

**Q.** And the “prevention of body weight loss” value (morphine-dependent rats)?
**A.** 48.15%

**Q.** And the “suppression of other withdrawal symptoms” value (morphine-dependent rats)?
**A.** 49.4%

**Q.** What about the “effect on naloxone induced withdrawal symptoms” value (morphine-dependent rats; ip) of the same molecule?
**A.** suppressed

**Q.** And the “effect on body weight loss” value (morphine-dependent rats; sc)?
**A.** prevent further body weight loss

**Q.** And the “second naloxone test, withdrawal symptoms” value (morphine-dependent rats; sc)?
**A.** less severe withdrawal symptoms in comparison to the morphine group, yet more severe when compare with the DHE group

**Q.** What about the “significance of effect on body weight loss vs untreated (saline) control” value (morphine-dependent rats; sc) of the same molecule?
**A.** highly significant

**Q.** And the “Scores of withdrawal syndromes, 1st naloxone precipitation (X ± SD)” value [2]?
**A.** 17.0 ± 4.6

**Q.** What about the “Scores of withdrawal syndromes, 2nd naloxone precipitation (X ± SD)” value [2] of the same molecule?
**A.** 1.3 ± 1.2

**Q.** What about the “naloxone precipitation test on day 9” value [2] of the same molecule?
**A.** naloxone precipitated withdrawal symptoms

**Q.** What about the “naloxone withdrawal symptoms after maintenance or substitution treatment” value [2] of the same molecule?
**A.** moderate naloxone withdrawal symptoms

**Q.** And the “withdrawal symptoms between injections during substitution” value [2]?
**A.** some moderate withdrawal symptoms

**Q.** What about the “withdrawal symptoms during the first several days of substitution” value [2] of the same molecule?
**A.** partially suppressed

**Q.** With `CN1CC[C@]23c4c5ccc(O)c4O[C@H]2[C@@H](O)C=C[C@H]3[C@H]1C5` [Morphine, morphine] as the molecule, how does the “prevention of body weight loss” value (morphine-dependent rats) read?
**A.** 43.5%

**Q.** What about the “suppression of other withdrawal symptoms” value (morphine-dependent rats) of the same molecule?
**A.** 45.5%

**Q.** What about the “time to complete recovery of weight loss” value (morphine-dependent rats; sc) of the same molecule?
**A.** 48 h

**Q.** And the “time to reversal of body weight loss” value (morphine-dependent rats; sc)?
**A.** 3 h

**Q.** What about the “time after withdrawal at which withdrawal symptoms began” value [3] of the same molecule?
**A.** Sixteen

**Q.** With `C=CCN1CC[C@]23c4c5ccc(O)c4O[C@H]2C(=O)CC[C@@]3(O)[C@H]1C5` [naloxone] as the molecule, how does the “oral or sublingual bioavailability” value [4] read?
**A.** low

**Q.** What about the “effect of naloxone on the APD of naive DRG neurons” value [5] of the same molecule?
**A.** does not alter the APD; also recorded: ineffective

**Q.** And the “naloxone effect on APD of chronic opioid-treated DRG neurons” value [6]?
**A.** excitatory APD-prolonging effect; also recorded: prolongs the APD

**Q.** What about the “peak response of naloxone induced withdrawal symptoms” value (morphine-dependent rats; ip, 4 mg/kg) of the same molecule?
**A.** ≤ 15 min

**Q.** And the “time of maximum body weight loss after naloxone precipitation” value (morphine-dependent rats; ip, 4 mg/kg)?
**A.** 24 h

**Q.** What about the “time to gradual weight recovery after naloxone precipitation” value (morphine-dependent rats; ip, 4 mg/kg) of the same molecule?
**A.** 90 h
